Assay results as given in PubChem BioAssay (NCI).
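96-well plates; 48 h exposure; 5 concentrations. Endpoints by linear interpolation between flanking doses. Not reached: highest tested concentration assigned. TGI: total growth inhibition.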

Legend:
Test in all cases: inhibition of tumour cell growth, NCI panel, 48 h
[1] = system: 786-0 renal
[2] = system: A498 renal
[3] = system: A549 NSCLC
[4] = system: ACHN renal
[5] = system: BT-549 breast
[6] = system: CAKI-1 renal
[7] = system: CCRF-CEM leukemia
[8] = system: COLO 205 colon
[9] = system: DU-145 prostate
[10] = system: EKVX NSCLC
[11] = system: HCC-2998 colon
[12] = system: HCT-116 colon
[13] = system: HCT-15 colon
[14] = system: HL-60(TB) leukemia
[15] = system: HOP-62 NSCLC
[16] = system: HOP-92 NSCLC
[17] = system: HS 578T breast
[18] = system: HT29 colon
[19] = system: IGROV1 ovarian
[20] = system: K-562 leukemia
[21] = system: KM12 colon
[22] = system: M14 melanoma
[23] = system: MALME-3M melanoma
[24] = system: MCF7 breast
[25] = system: MDA-MB-231 breast
[26] = system: MDA-MB-435
[27] = system: MDA-N
[28] = system: MOLT-4 leukemia
[29] = system: NCI-H226 lung
[30] = system: NCI-H23 lung
[31] = system: NCI-H460 lung
[32] = system: NCI/ADR-RES ovarian
[33] = system: OVCAR-3 ovarian
[34] = system: OVCAR-4 ovarian
[35] = system: OVCAR-5 ovarian
[36] = system: OVCAR-8 ovarian
[37] = system: PC-3 prostate
[38] = system: RPMI-8226 leukemia
[39] = system: RXF 393 renal
[40] = system: SF-268 CNS
[41] = system: SF-295 CNS
[42] = system: SF-539 CNS
[43] = system: SK-MEL-28 melanoma
[44] = system: SK-MEL-5 melanoma
[45] = system: SN12C renal
[46] = system: SNB-19 CNS
[47] = system: SR leukemia
[48] = system: SW-620 colon
[49] = system: T-47D breast
[50] = system: TK-10 renal
[51] = system: U251 CNS
[52] = system: UACC-257 melanoma
[53] = system: UACC-62 melanoma
[54] = system: UO-31 renal
[55] = system: LOX IMVI melanoma
[56] = system: NCI-H522 lung
[57] = system: SK-MEL-2 melanoma
[58] = system: SK-OV-3 ovarian
[59] = system: SNB-75 CNS

O=[N+]([O-])C1CC/C(=N/O)c2nonc21 (centres undefined)
TGI [1]: > 10 µM
TGI [2]: > 10 µM
TGI [3]: > 10 µM
TGI [4]: > 10 µM
TGI [5]: > 10 µM
TGI [6]: > 10 µM
TGI [7]: > 10 µM
TGI [8]: > 10 µM
TGI [9]: > 10 µM
TGI [10]: > 10 µM
TGI [11]: > 10 µM
TGI [12]: > 10 µM
TGI [13]: > 10 µM
TGI [14]: > 10 µM
TGI [15]: > 10 µM
TGI [16]: > 10 µM
TGI [17]: > 10 µM
TGI [18]: > 10 µM
TGI [19]: > 10 µM
TGI [20]: > 10 µM
TGI [21]: > 10 µM
TGI [22]: > 10 µM
TGI [23]: > 10 µM
TGI [24]: > 10 µM
TGI [25]: > 10 µM
TGI [26]: > 10 µM
TGI [27]: > 10 µM
TGI [28]: > 10 µM
TGI [29]: > 10 µM
TGI [30]: > 10 µM
TGI [31]: > 10 µM
TGI [32]: > 10 µM
TGI [33]: > 10 µM
TGI [34]: > 10 µM
TGI [35]: > 10 µM
TGI [36]: > 10 µM
TGI [37]: > 10 µM
TGI [38]: > 10 µM
TGI [39]: > 10 µM
TGI [40]: > 10 µM
TGI [41]: > 10 µM
TGI [42]: > 10 µM
TGI [43]: > 10 µM
TGI [44]: > 10 µM
TGI [45]: > 10 µM
TGI [46]: > 10 µM
TGI [47]: > 10 µM
TGI [48]: > 10 µM
TGI [49]: > 10 µM
TGI [50]: > 10 µM
TGI [51]: > 10 µM
TGI [52]: > 10 µM
TGI [53]: > 10 µM
TGI [54]: > 10 µM

N#CCc1n[nH]c(Cc2ccccc2)n1
TGI [1]: > 100 µM
TGI [2]: > 100 µM
TGI [3]: > 100 µM
TGI [4]: > 100 µM
TGI [5]: > 100 µM
TGI [6]: > 100 µM
TGI [7]: > 100 µM
TGI [8]: > 100 µM
TGI [9]: > 100 µM
TGI [10]: > 100 µM
TGI [11]: > 100 µM
TGI [12]: > 100 µM
TGI [13]: > 100 µM
TGI [14]: > 100 µM
TGI [15]: > 100 µM
TGI [16]: > 100 µM
TGI [17]: > 100 µM
TGI [18]: > 100 µM
TGI [19]: > 100 µM
TGI [20]: > 100 µM
TGI [21]: > 100 µM
TGI [55]: > 100 µM
TGI [22]: > 100 µM
TGI [23]: > 100 µM
TGI [24]: > 100 µM
TGI [25]: > 100 µM
TGI [26]: > 100 µM
TGI [27]: > 100 µM
TGI [28]: > 100 µM
TGI [30]: > 100 µM
TGI [31]: > 100 µM
TGI [56]: > 100 µM
TGI [32]: > 100 µM
TGI [33]: > 100 µM
TGI [34]: > 100 µM
TGI [35]: > 100 µM
TGI [36]: > 100 µM
TGI [37]: > 100 µM
TGI [39]: > 100 µM
TGI [40]: > 100 µM
TGI [41]: > 100 µM
TGI [42]: > 100 µM
TGI [57]: > 100 µM
TGI [43]: > 100 µM
TGI [44]: > 100 µM
TGI [58]: > 100 µM
TGI [45]: > 100 µM
TGI [46]: > 100 µM
TGI [59]: > 100 µM
TGI [47]: > 100 µM
TGI [48]: > 100 µM
TGI [49]: > 100 µM
TGI [50]: > 100 µM
TGI [51]: > 100 µM
TGI [52]: > 100 µM
TGI [53]: > 100 µM
TGI [54]: > 100 µM

O=C1NC(SSC2=NNC3(C(=O)N2)c2ccccc2-c2ccccc23)=NNC12c1ccccc1-c1ccccc12
TGI [1]: > 10 µM
TGI [2]: > 10 µM
TGI [3]: > 10 µM
TGI [4]: > 10 µM
TGI [5]: > 10 µM
TGI [6]: > 10 µM
TGI [7]: > 10 µM
TGI [8]: > 10 µM
TGI [9]: > 10 µM
TGI [10]: > 10 µM
TGI [11]: > 10 µM
TGI [12]: > 10 µM
TGI [13]: > 10 µM
TGI [14]: > 10 µM
TGI [15]: > 10 µM
TGI [16]: > 10 µM
TGI [17]: > 10 µM
TGI [18]: > 10 µM
TGI [19]: > 10 µM
TGI [20]: > 10 µM
TGI [21]: > 10 µM
TGI [55]: > 10 µM
TGI [22]: > 10 µM
TGI [23]: > 10 µM
TGI [24]: > 10 µM
TGI [25]: > 10 µM
TGI [26]: > 10 µM
TGI [27]: > 10 µM
TGI [28]: > 10 µM
TGI [29]: > 10 µM
TGI [30]: > 10 µM
TGI [31]: > 10 µM
TGI [56]: > 10 µM
TGI [32]: > 10 µM
TGI [33]: > 10 µM
TGI [34]: > 10 µM
TGI [35]: > 10 µM
TGI [36]: > 10 µM
TGI [37]: > 10 µM
TGI [38]: > 10 µM
TGI [39]: > 10 µM
TGI [40]: > 10 µM
TGI [41]: > 10 µM
TGI [42]: > 10 µM
TGI [57]: > 10 µM
TGI [43]: > 10 µM
TGI [44]: > 10 µM
TGI [58]: > 10 µM
TGI [45]: > 10 µM
TGI [46]: > 10 µM
TGI [59]: > 10 µM
TGI [47]: > 10 µM
TGI [48]: > 10 µM
TGI [49]: > 10 µM
TGI [50]: > 10 µM
TGI [51]: > 10 µM
TGI [52]: > 10 µM
TGI [53]: > 10 µM
TGI [54]: > 10 µM

C[C@H](CCC(=O)NCCS(=O)(=O)O)[C@H]1CC[C@H]2[C@@H]3CC[C@@H]4C[C@H](O)CC[C@]4(C)[C@H]3CC[C@]12C
TGI [1]: > 100 µM
TGI [2]: > 100 µM
TGI [3]: > 100 µM
TGI [4]: > 100 µM
TGI [5]: > 100 µM
TGI [6]: > 100 µM
TGI [7]: > 100 µM
TGI [8]: > 100 µM
TGI [9]: > 100 µM
TGI [10]: > 100 µM
TGI [11]: > 100 µM
TGI [12]: > 100 µM
TGI [13]: > 100 µM
TGI [14]: > 100 µM
TGI [15]: > 100 µM
TGI [16]: > 100 µM
TGI [17]: > 100 µM
TGI [18]: > 100 µM
TGI [19]: > 100 µM
TGI [20]: > 100 µM
TGI [21]: > 100 µM
TGI [55]: > 100 µM
TGI [22]: > 100 µM
TGI [23]: > 100 µM
TGI [24]: > 100 µM
TGI [25]: > 100 µM
TGI [26]: > 100 µM
TGI [27]: > 100 µM
TGI [28]: > 100 µM
TGI [29]: > 100 µM
TGI [30]: > 100 µM
TGI [31]: > 100 µM
TGI [56]: > 100 µM
TGI [32]: > 100 µM
TGI [33]: > 100 µM
TGI [34]: > 100 µM
TGI [35]: > 100 µM
TGI [36]: > 100 µM
TGI [37]: > 100 µM
TGI [38]: > 100 µM
TGI [39]: > 100 µM
TGI [40]: > 100 µM
TGI [41]: > 100 µM
TGI [42]: > 100 µM
TGI [57]: > 100 µM
TGI [43]: > 100 µM
TGI [44]: > 100 µM
TGI [58]: > 100 µM
TGI [45]: > 100 µM
TGI [46]: > 100 µM
TGI [59]: > 100 µM
TGI [47]: > 100 µM
TGI [48]: > 100 µM
TGI [49]: > 100 µM
TGI [50]: > 100 µM
TGI [51]: > 100 µM
TGI [52]: > 100 µM
TGI [53]: > 100 µM
TGI [54]: > 100 µM
